From patent publication US7723358B2, “Aroyl-O-piperidine derivatives for the treatment of diabetes-related problems” (Merck Patent GmbH, priority 2004, dated 2010)

What was measured:
[1] = molecular target: T1, microsomal triglyceride transfer protein (MTP) (Mesocricetus auratus, UniProt P55158); assay: Inhibition of MTP activity: transfer of [3H]-triolein from donor liposomes to biotinylated LDL, SPA; format: biochemical; conditions: MTP from golden hamster liver; incubation 18-24 hours at 37° C.; read-out: IC50, concentration that allows a 50% inhibition of MTP
T1 construct: The supernatant comprising the soluble MTP is dialysed against Tris/HCl 150 mM; from tissue; host or cells: golden hamster liver microsomes, deoxycholate-solubilised supernatant, dialysed
T1 sequence (P55158 19-895): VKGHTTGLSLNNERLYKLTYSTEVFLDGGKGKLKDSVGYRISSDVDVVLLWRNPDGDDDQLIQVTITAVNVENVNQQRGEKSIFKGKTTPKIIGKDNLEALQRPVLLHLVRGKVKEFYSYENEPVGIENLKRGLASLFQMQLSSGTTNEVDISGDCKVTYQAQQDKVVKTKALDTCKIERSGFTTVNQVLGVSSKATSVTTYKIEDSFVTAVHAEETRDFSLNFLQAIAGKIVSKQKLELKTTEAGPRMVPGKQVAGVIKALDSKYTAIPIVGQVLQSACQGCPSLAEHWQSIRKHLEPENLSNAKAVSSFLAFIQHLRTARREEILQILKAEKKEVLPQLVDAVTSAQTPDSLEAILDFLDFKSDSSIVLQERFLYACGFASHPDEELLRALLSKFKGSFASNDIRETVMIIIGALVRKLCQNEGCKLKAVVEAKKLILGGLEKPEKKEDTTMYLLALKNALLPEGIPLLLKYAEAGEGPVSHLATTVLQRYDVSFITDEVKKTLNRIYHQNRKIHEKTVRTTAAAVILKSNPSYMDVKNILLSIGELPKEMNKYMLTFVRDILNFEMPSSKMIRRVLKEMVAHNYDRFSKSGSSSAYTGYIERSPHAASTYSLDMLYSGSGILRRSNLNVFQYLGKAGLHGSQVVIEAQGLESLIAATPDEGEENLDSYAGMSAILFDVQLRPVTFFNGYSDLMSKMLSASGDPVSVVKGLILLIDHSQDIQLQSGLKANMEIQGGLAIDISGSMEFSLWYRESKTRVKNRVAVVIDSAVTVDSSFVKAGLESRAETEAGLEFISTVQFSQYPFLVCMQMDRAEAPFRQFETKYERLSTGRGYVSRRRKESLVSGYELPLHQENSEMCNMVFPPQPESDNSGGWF
Summary of the method: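 Soluble MTP was extracted with deoxycholate from golden hamster liver microsomes. It was incubated with [3H]-triolein/phosphatidylcholine donor liposomes, biotinylated LDL acceptors and compound in DMSO in HEPES/NaCl/BSA buffer, pH 7.4, for 18-24 h at 37° C. Transfer was read with streptavidin SPA beads, and IC50 was taken as 50% inhibition of transfer.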

[2] = tested on: apo B secretion in HepG2 cells; assay: Secretion of apo B in the HepG2 human cell line (sandwich-ELISA); format: cell-based; conditions: 24 hours incubation, culture supernatant, read-out: IC50, concentration that produces a 50% inhibition of apo B secretion in the HepG2 cells
Method: Analysis of the Secretion of apo B in the HepG2 Human Cell Line:
The activity of a compound according to the invention can be evaluated by measuring the inhibition of apo B secretion in HepG2 cells.
The HepG2 cells (ECACC—No. 85011430) are used as model in the study of the in vitro hepatic secretion of lipoproteins (Dixon J. and Ginsberg H., J., Lipid. Res., 1993, 34, 167-179).
The HepG2 cells are cultured in Dulbecco's modified Eagle's medium comprising 10% foetal calf serum (DMEM and FBS—Gibco) in 96-well plates under an atmosphere of 5% carbon dioxide for 24 hours (about 70% confluence).
The test compounds are dissolved at a concentration of 2 or 10 mM in dimethyl sulfoxide (DMSO). Serial dilutions (1:3.16) are made in DMSO and are added (1:200—Robot Multimek Beckman) to the growth medium (200 μL) and then finally incubated for 24 hours in the various wells containing the HepG2 cells.
The 24-hour culture supernatant diluted to 1:5 (phosphate-buffered saline:PBS comprising 1% bovine serum albumin) is tested according to a sandwich-ELISA method specific for human apo B.
The results are expressed in terms of IC50, i.e. the concentration that produces a 50% inhibition of apo B secretion in the HepG2 cells.

| SMILES | IC50 [1] [nM] | IC50 [2] [nM] |
| --- | --- | --- |
| CCOC(=O)N1CCC(Oc2cccc(NC(=O)c3cccc(C)c3-c3ccc(OC(F)(F)F)cc3)c2)CC1 [Example 6, ethyl 4-[3-[[[6-methyl-4′-(trifluoromethoxy)-[1,1′-biphenyl]-2-yl]carbonyl]amino]-phenoxy]-1-piperidinecarboxylate] | 47.6 | 4 |
| COc1ccc(C(=O)N2CCC(Oc3cccc(NC(=O)c4cccc(C)c4-c4ccc(OC(F)(F)F)cc4)c3)CC2)cc1OC [Example 103] | 130 | 68.4 |
